# Experimental data from patent US10442835B2, “Water-soluble rapamycin derivatives” (Zhejiang Hisun Pharmaceutical Co., Ltd., priority 2016, dated 2019).
# Where “and” joins values, the source holds several entries; their conditions need not be identical. Equal entries are not always repeated.
# How the values were obtained:
# [1] = tested on: human liver cancer cell HepG2; assay: In vitro activity assay, growth of HepG2 (thymidine incorporation); type: cell-based; conditions: 48 h
# Text: (§1) The anti-tumor activity and toxicity of the compounds according to the present invention can be assayed through standard operational procedures of pharmacological experiment. The experiments carried out herein can test the inhibitory effect of the compounds according to the present invention on the growth of human liver cancer cell HepG2, lung cancer cell NCI460, prostate cancer cell DU145, prostate cancer cell PC3, and human breast cancer cell MDA-MB-435. The operational procedure used is briefly described below by taking the inhibitory activity assay against human liver cancer cell HepG2 as an example.
# Human liver cancer cell HepG2 grew in the follow medium:
# Preparation of the growth medium: BRL minimum essential medium with Earle Salts (500 mL), with the addition of the following agents:
# (§2) The operational procedure for the assay is as follows:
# (§3) 1. Cells after being trypsinized were inoculated in 96-well plates at a concentration of 10^4 cells/well, and allowed to grow in a medium with a final volume of 200 μL. The 96-well plates after inoculation are allowed to stand for 24 hours at 37° C., in order to allow the cells to adhere to the surface of the wells.
# (§4) 2. The medium was removed by carefully pipetting without disturbing the cell monolayer. 200 μL Fresh medium was added into each well. It is arranged to make it possible to collect samples from enough wells to run the experiments in triplicate.
# (§5) 3. The compounds to be tested according to the present invention were dissolved into 10 μL phosphate buffered solution (PBS) and incubated for 48 h at 37° C.
# (§6) 4. In the last 6 h of incubation, cells in each well of the 96-well plates were labeled by 1 microcurie T thymidine (New England Nuclear thymidine), by adding 10 μL PBS containing 1 microcurie T thymidine (which was added into the PBS on the day of collecting the samples for test). The 96-well plates were then returned to the incubator and incubated for the last 6 h.
# (§7) 5. Without disturbing the cell monolayer, the radioactive medium was removed by pipetting. Then 50 μL of BRL 10×trypsin was added to each well, followed by incubation at 37° C. for 10 minutes or until the cell monolayer was detached from the bottom (or the wall) of each well. Samples were collected on glass-fiber diskettes using a Skatron 96-well cell harvester. Cells depositing on the glass-fiber diskettes were counted in a Wallac Betaplate counter.
# lung cancer cell NCI460 = assay: In vitro activity assay, growth of NCI460; type: cell-based; conditions: NCI-460, 48 h
# Text: as §1, §2, §3, §4, §5, §6, §7
# [2] = tested on: prostate cancer cell DU145; assay: In vitro activity assay, growth of DU145; type: cell-based; conditions: Homo sapiens; DU-145; 48 h
# Text: as §1, §2, §3, §4, §5, §6, §7
# prostate cancer cell PC3 = assay: In vitro activity assay, growth of PC3; type: cell-based; conditions: 48 h
# Text: as §1, §2, §3, §4, §5, §6, §7
# [3] = tested on: human breast cancer cell MDA-MB-435; assay: In vitro activity assay, growth of MDA-MB-435; type: cell-based; conditions: 48 h
# Text: as §1, §2, §3, §4, §5, §6, §7
# [4] = tested on: human lung cancer cell NCI-H460; assay: In vivo inhibitory activity against NCI-H460 tumor in nude mice; conditions: everolimus 5 mg/kg, compound I-1 6.8 mg/kg, qw 4×
# DU145 = assay: In vivo tumor inhibitory efficacy against DU145 tumor in nude mice, intragastrical vs injection; conditions: G1 everolimus 5 mg/kg intragastrical, 3×/w, 4 w
# Description: (§8) DU145 (the 3rd generation) tumors in the rapid proliferation stage inoculated in the axilla of nude mice were cut into tumor lumps with a size of 1 mm*1 mm*1 mm and then were inoculated subcutaneously to the right limb of nude mice using a trocar under a sterile condition. When the tumors grow to 150-200 mm^3, the mice were randomly divided into three groups and then administrated with the compounds for 4 weeks. The major diameter (a) and the minor diameter (b) of the tumors were measured 2 or 3 times a week. The tumor volume (TV) was calculated with the following equation: TV=½×a×b^2. Tumors were stripped and weighted at Day 28 and the tumor inhibition rate was calculated using the following equation: (tumor weight of control−tumor weight of experimental group)/tumor weight of control×100%.
# (§9) The nude mice were divided into 3 groups with 4 mice per group when the tumors averagely grew to about 185-200 mm^3, depending on the growth regularity of the tumor and the dosage regimen.
# [5] = tested on: human renal cell carcinoma OS-RC-2; assay: In vivo inhibitory activity against human renal cell carcinoma OS-RC-2 in nude mice
# Description: The tumor inhibition rate was calculated.
# [6] = Body weight of DU145 tumor nude mice; conditions: G1 everolimus 5 mg/kg intragastrical, 3×/w, 4 w;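 further: dosing started once xenografts reached 150-200 mm^3, with mice randomized into three groups, loss of body weight served as an indirect sign of drug toxicity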
# Description: as §8, §9
# G1: positive drug group: Everolimus (5 mg/kg, qw, 4 w, 3×/w); administration route: intragastrical administration;
# [7] = Body weight of NCI-H460 tumor nude mice; conditions: everolimus 5 mg/kg, compound I-1 6.8 mg/kg, qw 4×;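 further: Tumor-bearing mice dosed for 4 weeks once tumors reached 150–200 mm^3, with a vehicle control group, and body weight loss taken as an indirect sign of drug toxicity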
# Description: NCI-H460 (the 3rd generation) tumors in the rapid proliferation stage inoculated in the axilla of nude mice were cut into tumor lumps with a size of 1 mm*1 mm*1 mm and then were inoculated subcutaneously to the right limb of nude mice using a trocar under a sterile condition. When the tumors grew to 150˜200 mm^3, the mice were divided into groups and then administrated with the compounds for 4 weeks. The major diameter (a) and the minor diameter (b) of the tumors were measured two or three times a week. The tumor volume (TV) and the relative tumor proliferation rate (T/C) were calculated. The equation for calculating the tumor volume is: TV=½×a×b^2. The equation for calculating the relative tumor proliferation rate is T/C=TRTC/CRTV (TRTC: average relative tumor volume in the treatment group; CRTV: average relative tumor volume in the vehicle control group). Tumors were stripped and weighted at Day 28 and the tumor-inhibition rate was calculated with the following equation: (tumor weight of control−tumor weight of experimental group)/tumor weight of control×100%.
# Grouping method: the mice were divided into 3 groups with 6 mice per group when the tumors averagely grew to about 195 mm^3, depending on the growth regularity of the tumor and the dosage regimen. Administration route: intragastrical administration.
# G1: Control (vehicle, qw 4×, iv)
# G2: Positive drug group: Everolimus (5 mg/kg, qw 4×, iv)
smiles,measurement,setting,value
"CO[C@H]1C[C@@H]2CC[C@@H](C)[C@@](O)(O2)C(=O)C(=O)N2CCCC[C@H]2C(=O)O[C@H]([C@H](C)C[C@@H]2CC[C@@H](OCCO)[C@H](OC)C2)CC(=O)[C@H](C)/C=C(\C)[C@@H](O)[C@@H](OC)C(=O)[C@H](C)C[C@H](C)/C=C/C=C/C=C/1C [Everolimus, reference compound]",IC50,[1],52.29 ± 0.006 µM
same,IC50,lung cancer cell NCI460,99.811 ± 0.004 µM
same,IC50,[2],57.327 ± 0.005 µM
same,IC50,prostate cancer cell PC3,30.27 ± 0.006 µM
same,IC50,[3],62.57 ± 0.003 µM
same,Mean Volume of Tumor,[4]; Day 0,194.8659 mm^3
same,Mean Volume of Tumor,[4]; Day 3,264.7517 mm^3
same,TRTV (average relative tumor volume in the treatment group),[4]; Day 3,1.3586
same,Mean Volume of Tumor,[4]; Day 7,356.6133 mm^3
same,TRTV (average relative tumor volume in the treatment group),[4]; Day 7,1.8300
same,Mean Volume of Tumor,[4]; Day 10,457.1105 mm^3
same,TRTV (average relative tumor volume in the treatment group),[4]; Day 10,2.3458
same,Mean Volume of Tumor,[4]; Day 14,626.5192 mm^3
same,TRTV (average relative tumor volume in the treatment group),[4]; Day 14,3.2151
same,Mean Volume of Tumor,[4]; Day 17,730.3766 mm^3
same,TRTV (average relative tumor volume in the treatment group),[4]; Day 17,3.7481
same,Mean Volume of Tumor,[4]; Day 21,1386.2102 mm^3
same,TRTV (average relative tumor volume in the treatment group),[4]; Day 21,6.6005
same,Mean Volume of Tumor,[4]; Day 24,1593.5901 mm^3
same,TRTV (average relative tumor volume in the treatment group),[4]; Day 24,7.1515
same,Tumor Inhibition Rate,"[4]; Day 28, by tumor weight",56% and 56.01%
same,Mean Volume of Tumor,[4]; Day 28,1955.7073 mm^3
same,TRTV (average relative tumor volume in the treatment group),[4]; Day 28,9.5230
same,Tumor Weight ± SD,[4]; Day 28,1.1741 ± 0.3687 g
same,Mean Volume of Tumor,DU145; Day 0,198.71 mm^3
same,Mean Volume of Tumor,DU145; Day 3,216.57 mm^3
same,Mean Volume of Tumor,DU145; Day 7,208.07 mm^3
same,Mean Volume of Tumor,DU145; Day 10,215.24 mm^3
same,Mean Volume of Tumor,DU145; Day 14,236.94 mm^3
same,Mean Volume of Tumor,DU145; Day 17,268.62 mm^3
same,Mean Volume of Tumor,DU145; Day 21,298.50 mm^3
same,Mean Volume of Tumor,DU145; Day 24,289.57 mm^3
same,Mean Volume of Tumor,DU145; Day 28,302.22 mm^3
same,Tumor Inhibition Rate,[5]; G2 everolimus 2 mg/kg ig 3×/qw,35.6%
same,Tumor Inhibition Rate,[5]; G3 everolimus 6 mg/kg ig 3×/qw,41.1%
same,Tumor Weight ± SD,"[5]; end of experiment, G3 everolimus 6 mg/kg ig 3×/qw",0.4093 ± 0.3863 g
same,"Body Weight, mean value",[6]; Day 0,24.36 g
same,"Body Weight, mean value",[6]; Day 3,24.68 g
same,Decrease rate (body weight),[6]; Day 3,−1.32%
same,Decrease in body weight,[6]; Day 3 vs Day 0,-0.32 g
same,"Body Weight, mean value",[6]; Day 7,24.99 g
same,Decrease rate (body weight),[6]; Day 7,−2.59%
same,Decrease in body weight,[6]; Day 7 vs Day 0,-0.63 g
same,"Body Weight, mean value",[6]; Day 10,24.93 g
same,Decrease rate (body weight),[6]; Day 10,−2.32%
same,Decrease in body weight,[6]; Day 10 vs Day 0,-0.57 g
same,"Body Weight, mean value",[6]; Day 14,24.94 g
same,Decrease rate (body weight),[6]; Day 14,−2.38%
same,Decrease in body weight,[6]; Day 14 vs Day 0,-0.58 g
same,"Body Weight, mean value",[6]; Day 17,25.88 g
same,Decrease rate (body weight),[6]; Day 17,−6.24%
same,Decrease in body weight,[6]; Day 17 vs Day 0,-1.52 g
same,"Body Weight, mean value",[6]; Day 21,25.27 g
same,Decrease rate (body weight),[6]; Day 21,−3.75%
same,Decrease in body weight,[6]; Day 21 vs Day 0,-0.91 g
same,"Body Weight, mean value",[6]; Day 24,25.33 g
same,Decrease rate (body weight),[6]; Day 24,−3.96%
same,Decrease in body weight,[6]; Day 24 vs Day 0,-0.97 g
same,"Body Weight, mean value",[6]; Day 28,25.31 g
same,Decrease rate (body weight),[6]; Day 28,−3.90%
same,Decrease in body weight,[6]; Day 28 vs Day 0,-0.95 g
same,"Body Weights, mean value",[7]; Day 0,24.50 g
same,"Body Weights, mean value",[7]; Day 3,24.38 g
same,Decrease rate (body weight),[7]; Day 3,0.51%
same,Decrease in body weight,[7]; Day 3 vs Day 0,0.13 g
same,"Body Weights, mean value",[7]; Day 7,25.44 g
same,Decrease rate (body weight),[7]; Day 7,−3.82%
same,Decrease in body weight,[7]; Day 7 vs Day 0,-0.94 g
same,"Body Weights, mean value",[7]; Day 10,24.50 g
same,Decrease rate (body weight),[7]; Day 10,0.00%
same,Decrease in body weight,[7]; Day 10 vs Day 0,0.00 g
same,"Body Weights, mean value",[7]; Day 14,25.68 g
same,Decrease rate (body weight),[7]; Day 14,−4.83%
same,Decrease in body weight,[7]; Day 14 vs Day 0,-1.18 g
same,"Body Weights, mean value",[7]; Day 17,25.39 g
same,Decrease rate (body weight),[7]; Day 17,−3.63%
same,Decrease in body weight,[7]; Day 17 vs Day 0,-0.89 g
same,"Body Weights, mean value",[7]; Day 21,26.13 g
same,Decrease rate (body weight),[7]; Day 21,−6.65%
same,Decrease in body weight,[7]; Day 21 vs Day 0,-1.63 g
same,"Body Weights, mean value",[7]; Day 24,25.09 g
same,Decrease rate (body weight),[7]; Day 24,−2.41%
same,Decrease in body weight,[7]; Day 24 vs Day 0,-0.59 g
same,"Body Weights, mean value",[7]; Day 28,26.14 g
same,Decrease rate (body weight),[7]; Day 28,−6.67%
same,Decrease in body weight,[7]; Day 28 vs Day 0,-1.64 g
